US7001611B2, “Compositions normalizing circadian rhythm” (Suntory Limited, priority 2000, dated 2006)
“Also recorded” adds a separate entry of the source.

Experiments:
Wistar rats = assay: Circadian rhythm measuring method: amount of daily (spontaneous) movements of rats counted with an infrared sensor under a 12-hour light / 12-hour dark cycle; assay type: in vivo, rat; conditions: for enhancive effect on the circadian rhythm normalizing action of melatonin: Example 3; for ratio of activity in the light period to the total amount of movements (averages): Example 2, vs control group, astaxanthin diet, melatonin water (about 1 mg/day) or both, FIG. 5
From the text: To search for a substance having the action of normalizing the circadian rhythm, the inventors of the present invention conducted studies on various substances with the use of a circadian rhythm measuring method, with the amount of spontaneous movement of rats as an indicator, in an environment controlled to have a 12-hour light period and a 12-hour dark period. As a result, the inventors have clarified that astaxanthin, which is one of carotenoids, and/or its ester has a circadian rhythm normalizing action. […] These findings led them to accomplish the present invention. The influence of astaxanthin on daily movements was investigated in rats. Rats have the habit of resting (sleeping) mainly in the light period, and acting in the dark period. The circadian rhythm of rats was investigated by measuring the amount of daily movements continuously, and examining changes over time in the amounts of movements in the light period and the dark period. Four-week-old male Wistar rats (purchased from Nippon […]) were preliminarily reared for one week, and subjected to experiments at the age of 5 weeks. The rats were randomly divided into two groups (5 to 6 rats/group), and one of the groups was used as a control diet (low tocopherol) group, while the other group was used as an astaxanthin diet group, each group receiving the designated diet for 4 weeks. The animals were reared in animal cages kept at room temperature of 23.5±1° C. and a humidity of 55±5%, and the feed and water were provided ad libitum. Astaxanthin used was astaxanthin extracted from […] purified (an oil containing 15% of astaxanthin as a free compound; a product of Itano Refrigerating Co.). The rats were individually reared in a box equipped with an infrared sensor, and the amount of movements was counted with the infrared sensor. That is, each time the animal passed the infrared sensor, the passage was taken as one count. The counts taken were accumulated, and expressed as the amount of movements (counts). Statistical treatment was performed using ANOVA and student t-test. A period of 1 week after start of rearing with the experimental diet was set as a tuning period in which the animal was tuned to a 12-hour dark period and a 12-hour light period. Then, from the 2nd week, the amount of daily movements was continuously measured for 3 weeks. The total amount of movements, and the ratio of movements in the light period to the total amount of movements (i.e., the amount of movements in the light period/the total amount of movements×100 (%)) were calculated every day. […] The averages of the ratio (%) of movements in the light period were compared in both groups (FIG. 3). […] Four-week-old male Wistar rats (purchased from Nippon […]) were preliminarily reared for one week, and subjected to experiments at the age of 5 weeks. The rats were randomly divided into two groups (10 to 11 rats/group), and the two groups were given a control diet (low tocopherol diet) and an astaxanthin diet (Table 1), respectively. Each group was further divided into two groups (5 to 6 rats/group), which received distilled water and melatonin water, respectively, for 4 weeks. The animals were reared in animal cages kept at room temperature of 23.5±1° C. and a humidity of 55±5%, and the feed and water were provided ad libitum. Melatonin was dissolved in water at a concentration of 0.5 mg/100 ml, and the solution was given ad lib, as drinking water. The intake of melatonin, calculated from the amount of water taken by rats, was about 1 mg/day. After start of rearing with the experimental diet, a tuning period of 1 week was provided. Then, the amount of movements of rats was measured as in Example 1 for 3 weeks to look into changes in the circadian rhythm. No differences were noted among the averages of the total amount of movements in the respective groups (FIG. 4). […]

[1] = Yamashita 1992; cited from earlier work
[2] = test system: lipid peroxides in the brain; conditions: dose 1/100 the dose of α-tocopherol; Nishigaki et al. 1994; cited from earlier work
[3] = Example 4, tocopherol-deficient basic feed, FIG. 9

Row | SMILES | enhancive effect on the circadian rhythm normalizing action of melatonin (Wistar rats; 0.001% tocopherol diet with melatonin water, FIG. 6) | enhancive effect on the circadian rhythm normalizing action of melatonin (Wistar rats; 0.005% tocopherol diet with melatonin water, FIG. 7) | enhancive effect on the circadian rhythm normalizing action of melatonin (Wistar rats; 0.005% tocopherol diet with melatonin water, FIG. 7, listed as tocopherol) | antioxidant action compared with α-tocopherol [1] | increases in lipid peroxides in the brain caused by irradiation with 60Co [2] | total amount of movements (day-to-day changes) (Wistar rats; Example 1, astaxanthin diet (0.3 g/kg of oil containing 15% astaxanthin) vs control low tocopherol diet, 3 weeks, FIG. 1) | average of the ratio (%) of movements in the light period (Wistar rats; Example 1, astaxanthin diet group vs control, FIG. 3) | ratio of movements in the light period to the total amount of movements (day-to-day changes) (Wistar rats; Example 1, astaxanthin diet vs control low tocopherol diet, 3 weeks, FIG. 2) | ratio of activity in the light period to the total amount of movements (averages) (Wistar rats) | enhancive effect on the circadian rhythm normalizing action of melatonin (Wistar rats; 0.0045% astaxanthin diet with melatonin water, FIG. 8) | total amount of movements (Wistar rats; Example 4, maximum dose of 1.5 g/kg diet, tocopherol-deficient basic feed, FIG. 10) | doses at which the decrease of the ratio of activity in the light period was significant (Wistar rats; [3]) [g/kg diet] | minimum dose at which the ratio of activity in the light period decreased (Wistar rats; [3]) [g/kg diet] | ratio of activity in the light period to the total amount of movements (dose dependency) (Wistar rats; Example 4, tocopherol-deficient basic feed, astaxanthin diets 0.15, 0.3, 0.6, 1.5 g/kg, FIG. 9)
1 | Cc1c(C)c2c(c(C)c1O)CC[C@@](C)(CCC[C@H](C)CCC[C@H](C)CCCC(C)C)O2 [α-tocopherol, reference compound] | no effect of enhancing the circadian rhythm normalizing action of melatonin | no effect of enhancing the circadian rhythm normalizing action of melatonin | slight enhancive effect |  |  |  |  |  |  |  |  |  |  | 
2 | CC1=C(/C=C/C(C)=C/C=C/C(C)=C/C=C/C=C(C)/C=C/C=C(C)/C=C/C2=C(C)C(=O)[C@@H](O)CC2(C)C)C(C)(C)C[C@H](O)C1=O [Astaxanthin, astaxanthin] |  |  |  | more potent than that of α-tocopherol | can suppress increases in lipid peroxides in the brain | did not affect the total amount of movements | significant decrease in the ratio of movements in the light period | lowered the ratio of movements in the light period | tendency toward a decrease in the ratio of activity in the light period | enhance the circadian rhythm normalizing action of melatonin significantly; also recorded: more potent effect of enhancing the circadian rhythm normalizing action of melatonin than does α-tocopherol | tended to increase | ≥ 0.3 | 0.15 | decreased in an astaxanthin concentration-dependent manner
3 | COc1ccc2[nH]cc(CCNC(C)=O)c2c1 [melatonin, reference compound] |  |  |  |  |  |  |  |  | tendency toward a decrease in the ratio of activity in the light period |  |  |  |  | 
